The experiment addresses Steroidogenic factor 1 (Homo sapiens, UniProt Q13285). Put plainly: SF-1 activators, concentration-response, dose response, cell-based, CHO-K1, Gal4-SF-1 LBD, luciferase luminescence (AID 692).
Setting [1] is: inactive by the depositor's call.

Chain of Steroidogenic factor 1 (Q13285 whole entry, the tested form may be a part): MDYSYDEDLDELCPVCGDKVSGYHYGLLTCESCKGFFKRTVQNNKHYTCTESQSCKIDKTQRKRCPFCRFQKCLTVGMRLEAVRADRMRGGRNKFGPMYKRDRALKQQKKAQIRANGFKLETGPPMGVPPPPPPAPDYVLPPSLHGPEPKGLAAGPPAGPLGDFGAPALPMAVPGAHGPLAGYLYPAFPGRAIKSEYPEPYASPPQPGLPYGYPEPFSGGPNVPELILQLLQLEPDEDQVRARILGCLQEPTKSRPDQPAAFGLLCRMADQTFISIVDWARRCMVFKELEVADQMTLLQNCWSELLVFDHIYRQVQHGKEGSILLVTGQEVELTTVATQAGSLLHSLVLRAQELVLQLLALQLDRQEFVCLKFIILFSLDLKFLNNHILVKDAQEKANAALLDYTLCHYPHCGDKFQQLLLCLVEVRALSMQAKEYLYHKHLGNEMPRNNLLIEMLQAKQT

With `COc1ccc(C(=O)CC=Nc2cccc(C)n2)cc1OC`, the EC50 is 401 nM. The same measure, in the same setting: the figure for `CC(=O)c1c(C)[nH]c(C(=O)Nc2ccc3c(c2)OCCO3)c1C` is 466 nM.

As to `COc1ccc2c(c1OC)C(=O)N1c3ccccc3SC21` (stereo unspecified) [1,2-dimethoxy-4bH-isoindolo[1,2-b][1,3]benzothiazol-11-one], the EC50 worked out at 827 nM. Still for that read-out and setting: the figure for `O=C(CSc1ccccn1)c1ccc2c(c1)OCO2` [1-(1,3-benzodioxol-5-yl)-2-(2-pyridinylthio)ethanone] is 1160 nM; for `O=C(COc1ncnc2ccccc12)c1ccc2c(c1)OCCO2` [1-(2,3-dihydro-1,4-benzodioxin-6-yl)-2-(4-quinazolinyloxy)ethanone] it is 396 nM; for `CCCn1c(C)cc(C(=O)COc2ncnc3sccc23)c1C` [1-(2,5-dimethyl-1-propyl-3-pyrrolyl)-2-(4-thieno[2,3-d]pyrimidinyloxy)ethanone] it is 585 nM.

In turn, `N#CCc1ccc(NC(=O)Nc2cccc(Cl)c2)cc1` [1-(3-chlorophenyl)-3-[4-(cyanomethyl)phenyl]urea] yielded an EC50 of 2430 nM.

In turn, `CN(C)c1ccc(NC(=O)Nc2cccc(Cl)c2)cc1` [1-(3-chlorophenyl)-3-[4-(dimethylamino)phenyl]urea] gave an EC50 of 386 nM. Same read-out and setting: the figure for `Clc1ccc(-n2ncc3c(NCc4ccccn4)ncnc32)cc1` [1-(4-chlorophenyl)-N-(2-pyridinylmethyl)-4-pyrazolo[3,4-d]pyrimidinamine] is 2800 nM; for `COc1ccc2nc(Nc3nc(C)c(C(C)=O)s3)sc2c1` [1-[2-[(6-methoxy-1,3-benzothiazol-2-yl)amino]-4-methyl-1,3-thiazol-5-yl]ethanone] it is 572 nM. Turning to `O=C(Cc1ccccc1)n1nc(-c2ccccc2)nc1NCc1ccco1` [1-[5-(2-furanylmethylamino)-3-phenyl-1,2,4-triazol-1-yl]-2-phenylethanone], the EC50 under setting [1] was determined as 11300 nM.

Take `Fc1cnc(N2CCOCC2)nc1N1CCc2ccccc21` [1-[5-fluoro-2-(4-morpholinyl)-4-pyrimidinyl]indoline]: under setting [1], the EC50 worked out at 13700 nM.

Take `CCOC(=O)C1CCN(S(=O)(=O)c2ccc(-c3nc4ccccc4s3)s2)CC1` [1-[[5-(1,3-benzothiazol-2-yl)-2-thienyl]sulfonyl]isonipecotic acid ethyl ester]: the EC50 came out at 2170 nM. Regarding `COc1ccc2c(c1)CCc1c(C(=O)N3CCCCCC3)noc1-2` [1-azepanyl-(7-methoxy-4,5-dihydrobenzo[g][1,2]benzoxazol-3-yl)methanone], the EC50 amounted to 1320 nM. On the same count and under the same terms, the value for `COc1ccc(CNC(=O)NC2CCCCC2)cc1` [1-cyclohexyl-3-[(4-methoxyphenyl)methyl]urea] was over 11000 nM; that for `COc1ccc(-c2cc(C(=O)N3CCCCC3)no2)cc1OC` [1-{[5-(3,4-dimethoxyphenyl)isoxazol-3-yl]carbonyl}piperidine] was 3840 nM. Take `Cc1cc(C(=O)OCC(=O)N2CCc3ccccc32)c(C)o1` [2,5-dimethyl-3-furancarboxylic acid [2-(2,3-dihydroindol-1-yl)-2-oxoethyl] ester]: the EC50 is 1240 nM. `CC(C)(C)n1ncc2c(=O)n(CC(=O)NCc3ccccc3Cl)cnc21` [2-(1-tert-butyl-4-keto-pyrazolo[3,4-d]pyrimidin-5-yl)-N-(2-chlorobenzyl)acetamide] gave an EC50 of 138 nM. On the same count and under the same terms, the figure for `COc1cc(N2CCCC2)c(OC)cc1C=c1sc2nc3ccccc3n2c1=O` [2-(2,5-dimethoxy-4-pyrrolidino-benzylidene)thiazolo[3,2-a]benzimidazol-1-one] is 14600 nM; for `CCn1c(SCC(=O)c2cccs2)nnc1-c1ccco1` [2-(4-Ethyl-5-furan-2-yl-4H-[1,2,4]triazol-3-ylsulfanyl)-1-thiophen-2-yl-ethanone] it is 9840 nM. The same measure, in the same setting: the value for `CN(C)c1oc(-c2ccc(OCc3ccccc3)cc2)nc1C#N` [2-(4-benzoxyphenyl)-5-(dimethylamino)oxazole-4-carbonitrile] was 5210 nM. For `CCOc1ccc(N2C(=O)c3ccccc3C2O)cc1` (stereo unspecified) [2-(4-ethoxyphenyl)-3-hydroxy-3H-isoindol-1-one], the EC50 is 1250 nM. Same read-out and setting: the value for `O=C(CSc1nc2ccccc2o1)Nc1nc2ccccc2s1` [2-(Benzooxazol-2-ylsulfanyl)-N-benzothiazol-2-yl-acetamide] was over 99000 nM. Consider `Cc1cccc(-n2ccnc2SCC(=O)Nc2nccs2)c1` [2-[1-(3-methylphenyl)imidazol-2-yl]sulfanyl-N-(1,3-thiazol-2-yl)acetamide], for which the EC50 under setting [1] was 10900 nM. The compound `C=CCn1c(C)cc(C(=O)CSc2nc(O)c3ccccc3n2)c1C` [2-[2-(2,5-dimethyl-1-prop-2-enyl-pyrrol-3-yl)-2-oxidanylidene-ethyl]sulfanyl-1H-quinazolin-4-one] displayed an EC50 of 410 nM. In turn, `OCCOCCNc1ncnc2c1cnn2-c1ccc(Cl)cc1` [2-[2-[[1-(4-chlorophenyl)-4-pyrazolo[3,4-d]pyrimidinyl]amino]ethoxy]ethanol] registered an EC50 of 434 nM. On the same count and under the same terms, the figure for `CCOC(=O)CSc1nc2ccccc2c(=O)n1NC(=O)c1ccccc1` [2-[(3-benzamido-4-keto-quinazolin-2-yl)thio]acetic acid ethyl ester] is 1360 nM; for `CCc1nnc(NC(=O)CSc2nc3c(cc2C#N)CCC3)s1` [2-[(3-cyano-1-pyrindan-2-yl)thio]-N-(5-ethyl-1,3,4-thiadiazol-2-yl)acetamide] it is 1210 nM.

`CCOC(=O)CSc1nc(-c2ccncc2)ccc1C#N` [2-[(3-cyano-6-pyridin-4-yl-2-pyridinyl)thio]acetic acid ethyl ester] yielded an EC50 of 1620 nM.

`Cc1csc2nc(CSc3nc4ccccc4o3)cn12` [2-[(3-methyl-6-imidazo[2,1-b]thiazolyl)methylthio]-1,3-benzoxazole]: the EC50 was over 3670 nM. Same read-out and setting: the value for `Nn1c(SCC(=O)Nc2ccc(F)cc2F)nnc1-c1cccnc1` [2-[(4-amino-5-pyridin-3-yl-1,2,4-triazol-3-yl)sulfanyl]-N-(2,4-difluorophenyl)acetamide] was over 11000 nM; that for `CCc1nnc(NC(=O)CSc2nc(C)c3c(c2C#N)CCCC3)s1` [2-[(4-cyano-1-methyl-5,6,7,8-tetrahydroisoquinolin-3-yl)sulfanyl]-N-(5-ethyl-1,3,4-thiadiazol-2-yl)acetamide] was 1690 nM; that for `O=C1CCCC(=O)C1=CNc1ccc(O)cc1` [2-[(4-hydroxyanilino)methylidene]cyclohexane-1,3-dione] was 3760 nM.

Consider `CCOC(=O)CSc1nc(-c2ccc3c(c2)OCO3)ccc1C#N` [2-[[6-(1,3-benzodioxol-5-yl)-3-cyano-2-pyridinyl]thio]acetic acid ethyl ester], for which the concentration giving a half-maximal response (EC50) was over 3670 nM. Under setting [1], `O=C(CNc1ccccc1)Nc1ccc(F)cc1` [2-anilino-N-(4-fluorophenyl)acetamide] yielded an EC50 of 11400 nM. For the compound `Cc1nc2sc(-c3ccccc3)cc2c(=O)n1-n1cccc1` [2-methyl-6-phenyl-3-(1-pyrrolyl)-4-thieno[2,3-d]pyrimidinone], the EC50 amounted to 477 nM.

As for `Cc1ccc(C(=O)Nc2nnc(-c3cccs3)s2)cc1C` [3,4-dimethyl-N-(5-thiophen-2-yl-1,3,4-thiadiazol-2-yl)benzamide], the midpoint of the response, the EC50, lay at 989 nM. The same measure, in the same setting: the value for `Cc1ccc(-n2c(C)cc(C(=O)COC(=O)c3c(C)noc3C)c2C)cc1` [3,5-dimethyl-4-isoxazolecarboxylic acid [2-[2,5-dimethyl-1-(4-methylphenyl)-3-pyrrolyl]-2-oxoethyl] ester] was 1800 nM. Still for that read-out and setting: the value for `COc1cc(C2c3c(c(O)n(-c4ccccc4)c3O)ON2c2ccccc2)ccc1O` (stereo unspecified) [3-(3-methoxy-4-oxidanyl-phenyl)-2,5-diphenyl-3a,6a-dihydro-3H-pyrrolo[3,4-d][1,2]oxazole-4,6-dione] was 31900 nM.

Regarding `COc1ccc2nc3sc(C(=O)NCc4cccs4)c(N)c3cc2c1` [3-Amino-6-methoxy-thieno[2,3-b]quinoline-2-carboxylic acid (thiophen-2-ylmethyl)-amide], the EC50 amounted to 403 nM.

With `O=c1c2ccccc2nnn1CSc1nnc(COc2ccc(Cl)cc2)n1Cc1ccco1` [3-[[5-[(4-chloranylphenoxy)methyl]-4-(furan-2-ylmethyl)-1,2,4-triazol-3-yl]sulfanylmethyl]-1,2,3-benzotriazin-4-one], the EC50 is over 3670 nM. The same measure, in the same setting: the figure for `COc1cccc(C(=O)Nc2cccc(-c3nnc(-c4ccccc4)o3)c2)c1` [3-methoxy-N-[3-(5-phenyl-1,3,4-oxadiazol-2-yl)phenyl]benzamide] is over 1220 nM. Turning to `COc1ccc(-c2nc3c(Br)c(N)c(Br)cc3o2)cc1` [4,6-bis(bromanyl)-2-(4-methoxyphenyl)-1,3-benzoxazol-5-amine], the EC50 was determined as 825 nM. In the case of `c1ccc2nc3c(nc2c1)c1ccccc1n3CCN1CCOCC1` [4-(2-indolo[3,2-b]quinoxalin-6-ylethyl)morpholine], the EC50 was over 11000 nM. `COc1ccc(CNc2ccc(C(=O)O)cc2)cc1` [4-(p-anisylamino)benzoic acid] yielded an EC50 of 1840 nM. Consider `CCCOC(=O)c1ccc(NC(=O)C2CCCO2)cc1` (stereo unspecified) [4-(tetrahydrofuran-2-carbonylamino)benzoic acid propyl ester], for which the response was half-maximal at 2490 nM (EC50). Turning to `COc1cccc2c(O)c(C(=O)NCc3cccs3)cnc12` [4-Hydroxy-8-methoxy-quinoline-3-carboxylic acid (thiophen-2-ylmethyl)-amide], the EC50 is 6650 nM. On the same count and under the same terms, the figure for `Cc1cccnc1Nc1nc(-c2ccc(O)cc2O)cs1` [4-[2-(3-Methyl-pyridin-2-ylamino)-thiazol-4-yl]-benzene-1,3-diol] is 2270 nM; for `CC(C)(CC(=O)O)Cc1nc(-c2ccc(Cl)cc2)no1` [4-[3-(4-chlorophenyl)-1,2,4-oxadiazol-5-yl]-3,3-dimethyl-butanoic acid] it is over 11000 nM; for `CCOC(=O)N1CCN(S(=O)(=O)c2ccc(C(=O)Nc3sc4c(c3C#N)CCC4)cc2)CC1` [4-[4-[(3-cyano-5,6-dihydro-4H-cyclopenta[b]thiophen-2-yl)carbamoyl]phenyl]sulfonylpiperazine-1-carboxylic acid ethyl ester] it is over 1220 nM. Regarding `COC(=O)c1ccc(C(=O)C(C#N)c2nc3ccccc3s2)cc1` (stereo unspecified) [4-[(2Z)-2-(3H-1,3-benzothiazol-2-ylidene)-2-cyano-1-oxoethyl]benzoic acid methyl ester], the EC50 is 2710 nM.
